PMC8047729, “Identification of a nanomolar affinity α-synuclein fibril imaging probe by ultra-high throughput in silico screening” (Chemical Science, 2020)

Legend:
αS fibrils = αS fibrils (Homo sapiens, UniProt P37840)
Protocol: (§1) αS (50 nM) or Aβ42 (100 nM) fibrils were incubated for 1 h at 37 °C with increasing concentrations of [^125I]61 in 50 mM Tris–HCl, pH 7.4, in a total volume of 150 μL. Nonspecific binding was determined in a duplicate set of binding reactions containing 2 μM non-radioactive 61. After incubation, bound and free radioligand were separated by vacuum filtration through Whatman GF/C filters in a 24-sample harvester system, followed by washing with buffer containing 10 mM Tris–HCl (pH 7.4) and 150 mM NaCl. Filters containing the bound ligand were counted immediately on 2470 WIZARD Automatic Gamma Counter. All data points were collected in triplicate. The equilibrium dissociation constant (Kd) and the maximal number of binding sites (Bmax) were determined by fitting the data to the equation Y = Bmax × X/(Kd + X), using GraphPad Prism software.
(§2) Saturation binding assay. αS (50 nM) or Ab42 (100 nM) fibrils were incubated for 1 h at 37 °C
(§3) with increasing concentrations of [125I]61 in 50 mM Tris-HCl, pH 7.4, in a total volume of 150
(§4) µL. Nonspecific binding was determined in a duplicate set of binding reactions containing 2 µM
unlabeled 61. To measure the amount of radioligand binding to the filter paper, fibrils were
replaced with equal volume of buffer in a duplicate set of binding reactions. After incubation,
bound and free radioligand were separated by vacuum filtration through Whatman GF/C filters
(Brandel) in a 24-sample harvester system (Brandel), followed by washing with buffer containing
10 mM Tris-HCl (pH 7.4) and 150 mM NaCl. Filters containing the bound ligand were counted
immediately on 2470 WIZARD Automatic Gamma Counter (Perkin Elmer). All data points were
acquired in triplicate. The equilibrium dissociation constant (Kd) and the maximal number of
binding sites (Bmax) were determined by globally fitting the total binding and nonspecific binding
Y = Bmax*[X/(Kd+X)] + NS*X (S2)
where X is the concentration of ligand ([125I]61) and NS is nonspecific binding, using GraphPad
Prism software (San Diego, CA, USA).

[1] = test system: A53T and control mouse brain sections; format: binding
Aβ42 fibrils = Aβ42 fibrils (Homo sapiens, UniProt P05067)
Chain of Aβ42 fibrils (P05067 672-713 limits assumed): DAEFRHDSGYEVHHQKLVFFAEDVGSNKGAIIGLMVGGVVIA
Protocol: as §1, §2, §3, §4
unlabeled 61. To measure the amount of radioligand binding to the filter paper, fibrils were […]
10 mM Tris-HCl (pH 7.4) and 150 mM NaCl. Filters containing the bound ligand were counted […]
binding sites (Bmax) were determined by globally fitting the total binding and nonspecific binding […]

Q: What does the source list for `Cc1ccc(OCC(=O)Nc2cc(-c3ccc([125I])cc3)no2)cc1C` [[^125I]61]?
A: Kd (αS fibrils): 1.06 nM; Levels of non-specific binding (αS fibrils; saturation binding experiments): relatively high; Autoradiography signal in whole brain sections [1]: increased signal in A53T mouse brain in αS-rich regions compared with the control; Kd (Aβ42 fibrils): 4.56 nM
